Test results published in patent US5223527A, “Isatineoxime derivatives and their use” (NeuroSearch A/S, priority 1992, dated 1993).
pIC50: −log10 of the molar value. Like-named read-outs stand apart in the source and are kept apart here.

How the values were obtained:
AMPA binding site = test: AMPA binding assay (T. Honore et al., Neuroscience Letters 54, 27-32 (1985))
[1] = test system: AMPA-induced clonic seizures in NMRI mice; test: AMPA-induced clonic seizures (AMPA seizure test); assay type: in vivo; conditions: Mus musculus, female NMRI mice, dose inhibiting 50% of the mice from having clonic seizures
Experimental: AMPA given icv (intracerebroventricular) (15 μg/kg) NMRI to mice induces clonic seizures which should be inhibited by non-NMDA receptor antagonists.
Test compound was given i.v. 5 min (or p.o. 30 min) before a 0.3 μg icv administration of AMPA to 10 female NMRI mice (weighing 24-26 g) per dose. The number of mice experiencing clonic seizures within the next 5 min was noted. An ED50 value was calculated as the dose inhibiting 50% of the mice from having clonic seizures.

## CN(C)S(=O)(=O)c1cc2c(c3c1CCCC3)NC(=O)C2=NO [5-N,N-dimethylsulfamoyl-1H-6,7,8,9-tetrahydrobenz[g]indole-2,3-dione-3-oxime]
AMPA binding site
  pIC50: 5.70
[1]; iv, 5 min, administered i.v. 5 min before 0.3 μg icv AMPA, read-out: ED50 in the AMPA seizure test, i.v.
  ED50: 3 mg/kg
[1]; po, 0.5 h, administered orally (p.o.) 30 min before 0.3 μg icv AMPA, read-out: ED50 in the AMPA seizure test, orally
  ED50: 30 mg/kg
